System: Bacillus atrophaeus ATCC 9372 spores
Experiment: Spore inactivation by 3.25 wt. % performic acid at various times and temperatures
Type: cell-based
Conditions: for Colony Forming Units (CFU) / Log Reduction: 3.25 wt. % performic acid
Description: An aqueous solution containing x weight percent of performic acid may be prepared by (1) diluting a commercially available aqueous solution of hydrogen peroxide (e.g., a 30 weight percent aqueous solution or a 50 weight percent aqueous solution) down to a concentration of 2x; (2) diluting a commercially available aqueous solution of formic acid (e.g., a 95 weight percent aqueous solution) down to a concentration of 2x; and (3) combining the diluted solution of hydrogen peroxide and the diluted solution of formic acid in a 1:1 volume, thereby providing performic acid in a concentration of x.
The procedure for performing spore inactivation tests in solution is as follows: Bacillus atrophaeus ATCC 9372 spores in saline were equilibrated in a water bath at the preselected test temperature, as was a formic acid/hydrogen peroxide mixture. At an initial time (T0), a volume of the formic acid/peroxide mixture was added to the spore preparation, such that the pre-chosen test concentration of the sterilization agent was achieved. At preselected times after the addition of the sterilization agent to the spore preparation, aliquots of the spore-treated mixture were transferred into a solution containing an excess of catalase (MP Biomedical) in order to quench the peroxide reaction. This solution was then serially ten-fold diluted and spread-plated onto tryptic soy agar plates that were subsequently incubated at 35° C. for 48 hours and enumerated.
An aqueous solution containing 3.25 wt. % of performic acid was prepared by (1) diluting a 50 wt. % aqueous solution of hydrogen peroxide down to a concentration of 6.5 wt. %; (2) diluting a 95 wt. % aqueous solution of formic acid down to a concentration of 6.5 wt. %; and (3) combining the 6.5 wt. % solution of hydrogen peroxide and the 6.5 wt. % solution of formic acid in a 1:1 volume.

performic acid
Colony Forming Units (CFU) (10° C., 5 seconds): 0 CFU | Log Reduction (10° C., 5 seconds): >7.8 | Colony Forming Units (CFU) (10° C., 10 seconds): 0 CFU | Log Reduction (10° C., 10 seconds): >7.8 | Colony Forming Units (CFU) (10° C., 15 seconds): 0 CFU | Log Reduction (10° C., 15 seconds): >7.8 | Colony Forming Units (CFU) (20° C., 5 seconds): 0 CFU | Log Reduction (20° C., 5 seconds): >8 | Colony Forming Units (CFU) (20° C., 10 seconds): 0 CFU | Log Reduction (20° C., 10 seconds): >8 | Colony Forming Units (CFU) (20° C., 15 seconds): 0 CFU | Log Reduction (20° C., 15 seconds): >8 | effectiveness in killing spores (in words) (room temperature and below (e.g., 5° C. or 10° C.), exposure times as little as 5 seconds): surprisingly and unexpectedly effective

Source: patent US9814796B2, “Methods for sterilization and/or disinfection” (P[…] OF NEVADA, LLC, priority 2015, dated 2017)
